This passage reports MIC results from DBAASP.

Test systems include Staphylococcus aureus; Escherichia coli KF130; Escherichia coli UB1005; Escherichia coli; Escherichia coli KF111.
Common to all, as to assay: ≥ marks a high value that may be exact or a test limit, other limits are often not marked, values filed in µg/mL are converted to µM
The test system of assay [1] is Salmonella enterica subsp. enterica serovar Typhimurium ATCC 14028s.
In assay [2] the test system is Pseudomonas aeruginosa H744.
Assay [3] concerns Pseudomonas aeruginosa ATCC 27853.
Assay [4] has as its system Pseudomonas aeruginosa H374.
The subject of assay [5] is Pseudomonas aeruginosa K799.
The test system of assay [6] is Staphylococcus epidermidis.

Converted amounts (≈) assume the structure as drawn.

As usually defined, the MIC is the lowest concentration found to suppress growth. High values mean weaker potency, low ones greater potency. For `CC[C@H](C)[C@H](NC(=O)[C@H](C)NC(=O)[C@H](CCCCN)NC(=O)[C@H](CC(C)C)NC(=O)[C@H](C)NC(=O)[C@@H](NC(=O)[C@H](Cc1cnc[nH]1)NC(=O)[C@H](CC(C)C)NC(=O)[C@@H](NC(=O)[C@@H](NC(=O)[C@H](CCCCN)NC(=O)[C@@H](NC(=O)[C@H](C)NC(=O)[C@H](CO)NC(=O)[C@H](CCCCN)NC(=O)[C@H](Cc1ccccc1)NC(=O)[C@@H](NC(=O)[C@H](CCCCN)NC(=O)[C@H](CC(C)C)NC(=O)[C@H](Cc1ccccc1)NC(=O)[C@H](CO)NC(=O)[C@H](CCCCN)NC(=O)[C@H](Cc1c[nH]c2ccccc12)NC(=O)[C@@H](N)CCCCN)[C@@H](C)O)C(C)C)[C@@H](C)O)C(C)C)[C@@H](C)O)C(=O)N[C@@H](CO)C(=O)N[C@@H](CO)C(=O)O` [KWKSFLKTFKSAVKTVLHTALKAISS], the MIC in the assay on Staphylococcus aureus worked out at 1.37 µM (≈ 4 µg/mL); in assay [1], 1.37 µM (≈ 4 µg/mL); in the assay with Escherichia coli KF130, 0.342 µM (≈ 1 µg/mL); in assay [2], 0.685 µM (≈ 2 µg/mL); in the assay on Escherichia coli UB1005, 0.171 µM (≈ 0.5 µg/mL); in assay [3], 4 µM (≈ 11.7 µg/mL). Also, the MIC was found to be 0.685 µM (≈ 2 µg/mL) in assay [4]; 0.171 µM (≈ 0.5 µg/mL) in the assay on Escherichia coli; 0.342 µM (≈ 1 µg/mL) against Escherichia coli KF111; 0.685 µM (≈ 2 µg/mL) in assay [5]; 1.37 µM (≈ 4 µg/mL) in assay [6].
On to `CC[C@H](C)[C@H](NC(=O)[C@H](C)NC(=O)[C@H](CCCCN)NC(=O)[C@H](CC(C)C)NC(=O)[C@H](C)NC(=O)[C@@H](NC(=O)[C@H](Cc1cnc[nH]1)NC(=O)[C@H](Cc1ccccc1)NC(=O)[C@@H](NC(=O)[C@@H](NC(=O)[C@H](CCCCN)NC(=O)[C@H](C)NC(=O)[C@@H]1CCCN1C(=O)[C@H](CO)NC(=O)[C@H](CCCCN)NC(=O)[C@H](CC(C)C)NC(=O)[C@@H](NC(=O)[C@H](CCCN=C(N)N)NC(=O)[C@H](CC(C)C)NC(=O)[C@H](Cc1ccccc1)NC(=O)[C@H](CO)NC(=O)[C@H](CCCCN)NC(=O)[C@H](Cc1c[nH]c2ccccc12)NC(=O)[C@@H](N)CCCCN)[C@@H](C)O)[C@@H](C)O)C(C)C)[C@@H](C)O)C(=O)N[C@@H](CO)C(=O)N[C@@H](CO)C(=O)O` [KWKSFLRTLKSPAKTVFHTALKAISS], for which the MIC in the assay with Staphylococcus aureus is 10.9 µM (≈ 32 µg/mL); in assay [1] it was 1.36 µM (≈ 4 µg/mL); in the assay with Escherichia coli KF130, 0.339 µM (≈ 1 µg/mL); in assay [2], 2.72 µM (≈ 8 µg/mL); in the assay on Escherichia coli UB1005, 0.17 µM (≈ 0.5 µg/mL); in [4], 2.72 µM (≈ 8 µg/mL). Also, the MIC in the assay on Escherichia coli was 0.17 µM (≈ 0.5 µg/mL); against Escherichia coli KF111, 0.339 µM (≈ 1 µg/mL); in assay [5] it was 5.43 µM (≈ 16 µg/mL); in [6], 1.36 µM (≈ 4 µg/mL).
